Source: US9289388B2, “Methods and compositions for delivery of medicaments to the lungs” (Paka Pulmonary Pharmaceuticals, Inc., priority 2008, dated 2016)

Columns and labels:
[1] = molecular target: T1, HNE (Homo sapiens, UniProt P08246); assay: kinetic studies of HNE inhibition; type: biochemical
T1 sequence (P08246 30-267): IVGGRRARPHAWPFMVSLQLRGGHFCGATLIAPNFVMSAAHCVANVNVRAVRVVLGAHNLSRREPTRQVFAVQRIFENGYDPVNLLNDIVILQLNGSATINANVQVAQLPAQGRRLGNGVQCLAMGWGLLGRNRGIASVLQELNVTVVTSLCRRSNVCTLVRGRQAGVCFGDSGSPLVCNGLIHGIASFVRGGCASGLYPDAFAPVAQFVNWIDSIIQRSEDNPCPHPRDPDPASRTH
Description: (§1) Target 2 (the Zeneca molecule) was given in a 70-fold molar excess relative to HNE. In the kinetic studies, Target 2 has 2 nM affinity. […] Accordingly, the Target C was given to the animals in a 100 fold molar excess relative to HNE in these studies.

[2] = system: mice exposed to HNE; assay: Bronchoalveolar lavage of the lungs following HNE exposure (lung blood cell level); type: in vivo
Description: A total of 14 animals were used in this study. Anesthetized mice received 0.1 ml of solution delivered by a blunt tip catheter to the opening of the trachea and the animals allowed to aspirate the solution into their lungs (this method is also referred to as intratracheal instillation). All animals were exposed to the treatment for 2 hours and re-anesthetized. Bronchoalveolar lavage of the lungs was performed as described below. […] Target 2 (a potent HNE inhibitor developed by Zeneca in the early 1990s) when given with the HNE, reduced the average blood level in the lungs by 34% to 0.035 grams. Target C (the Zeneca molecule covalently attached to the N-terminus of the first 25 residues of the human surfactant B peptide) when given with the HNE reduced the average blood level in the lungs by 87% to 0.007 grams.
A set of animals was used to determine the optimal concentration of HNE for the study. […] The amount of HNE was reduced to 40 micrograms to maintain a maximal detrimental but survivable effect. The animals exposed to 40 micrograms of HNE were able to survive long enough to perform the complete study. All animals remaining in the complete study were exposed to 40 micrograms of HNE.
as §1
Bronchio-Alveolar lavage (BAL) is performed by 1) anesthetizing the animals; 2) performing a tracheotomy on the animals and cutting open the chest and spreading the ribs to enable full lung expansion; 3) pressurizing 1 ml of PBS buffer solution into the lungs through the tracheotomy catheter; 4) sucking the solution out of the lungs; 5) centrifuging the recovered solution to separate the red blood cell fraction from the liquid fraction; and 6) weighing the red blood cell fraction.

[3] = system: mice with HNE induced emphysema; assay: HNE induced emphysema, intratracheal delivery, lung histology and mean linear intercept after four weeks; type: in vivo
Description: A total of 42 animals were used in this study. Anesthesized mice received 0.1 ml of solution delivered by intratracheal instillation as described above in Example 4. Animals were divided into the following treatment groups: four animals received saline only; ten animals received HNE only; four animals received the Zeneca inhibitor (target 2) only; eight animals received HNE mixed with the Zeneca inhibitor (target 2); eight animals received Zeneca inhibitor linked to a lung surfactant peptide (target C) only; and eight animals received HNE mixed with Zeneca inhibitor linked to a lung surfactant peptide (target C). Animals receiving HNE were instilled with 40 micrograms HNE. Target 2 (Zeneca inhibitor) was administered in a 70-fold molar excess relative to HNE and Target C (Zeneca inhibitor linked to a lung surfactant peptide) was administered in a 100 fold molar excess relative to HNE as described in Example 4.
All animals were observed a four week period prior to sacrifice following IRB approved protocols and the lungs from each animal were removed for sectioning. The Hilar and central region was sectioned from the left lung and the caudal region was sectioned from the right lung of each animal. Lung sections were scored using blind-scoring by an expert as “E” for emphysema and “N” for no emphysema.
The distance between adjacent alveolar walls was also measured to quantitate the degree of lung destruction for each treatment group. Lung sections obtained from each animal were analyzed under a microscope (which is connected to a computer) and lines were drawn over the lung sections between adjacent alveolar walls. The distance along the lines was calculated to determine the average distance or mean linear intercept (MLI) between adjacent alveolar walls. An increase in the average distance between adjacent alveolar walls corresponds to an increase in lung destruction.

[4] = given with 40 micrograms HNE by intratracheal instillation, 2 hours, weight of BAL red blood cell fraction
[5] = HNE mixed with compound, four weeks, blind scoring

Target C (FPIPLPYCWLCRALIKRIQAMIPKG)
loss of potency as compared to Target 2 [1]: loses approximately two orders of magnitude of potency
Ki ([1]; read-out: affinity for HNE): ~200 nM
Lung Blood Cell Level, Group mean [2, 4]: 0.007 g
Lung Blood Cell Level, Mouse group 1 [2, 4]: 0 g
Lung Blood Cell Level, Mouse group 2 [2, 4]: 0.007 g
Lung Blood Cell Level, Mouse group 3 [2, 4]: 0.014 g
average blood level in the lungs ([2]; given with the HNE, 2 hours, HNE alone 0.053 grams): 0.007 grams
reduction of the average blood level in the lungs ([2]; given with the HNE, versus HNE alone): 87%
MLI (mean linear intercept between adjacent alveolar walls) ([3]; HNE (40 micrograms) mixed with compound, intratracheal, four weeks, saline only 44.40, HNE only 51.45): 45.82 μm
effect on HNE induced emphysema by MLI ([3]; HNE + compound, compared to HNE only and saline only): strongly inhibited HNE induced emphysema
effect on HNE induced emphysema, lung histology sections [3, 5]: strongly inhibited HNE induced emphysema
lung histology sections compared with animals receiving saline only [3, 5]: could not be distinguished in blind scoring
